# From paper PMC8672774, “Discovery of cell active macrocyclic peptides with on-target inhibition of KRAS signaling” (Chemical Science, 2021)
# Numbered stars: 1 amine (or outer) side, 2 acyl side, 3 side chain; on linkers, the order of the positions; unused ones are H or OH. Bridge positions count the residues as written; N and C are the ends. Square brackets hold non-standard residues; d marks the D form. Peptide text beside a SMILES is read from it. CH2 = C([*:1])[*:2]
# What was measured:
# [1] = tested on: pERK and pAKT in AsPC-1 cells; test: Western blot of KRAS signaling (pERK, pAKT) in AsPC-1 cells; type: cell-based; conditions: 1 hour and 16 hour time-points
# [2] = tested on: TNFα-stimulated NFκB signaling; test: Western blot of TNFα-stimulated NFκB signaling in AsPC-1 cells; type: cell-based
# [3] = tested on: MAPK and PI3K signaling in SK-MEL-28 cells (BRAF^V600E); test: Western blot of MAPK and PI3K signaling in SK-MEL-28 cells; type: cell-based
# EGF receptor activation = test: Western blot of EGF receptor activation in AsPC-1 cells; type: cell-based
# rat mast cells = test: Ex vivo rat mast cell degranulation and histamine release assay
# [4] = tested on: MAPK and PI3K signaling in A375 cells (BRAF^V600E); test: Western blot of MAPK and PI3K signaling in A375 cells; type: cell-based
# GDP-loaded KRAS^G12D = target: T1, GDP-loaded KRAS^G12D (Homo sapiens, UniProt P01116, G12D); test: TR-FRET competitive binding assay using KRAS G12D loaded with GDP; conditions: competition with 500 nM FAM-labeled tracer; relative binding, EC50 right-shifted compared to KD
# T1 construct: (AAs 1 to 169 plus a 4xGly motif appended to the N-; His-SUMO (N, cleaved yes); made in house; host or cells: E. coli Rosetta 2 (DE3)
# [5] = tested on: AsPC-1, SK-CO-1, NCI-H358 and NCI-H2122 cells; test: CellTiter-Glo 2.0 cell viability assay, KRAS mutant lines; type: cell-based; conditions: AsPC-1, SK-CO-1, NCI-H358, NCI-H2122; 120 h
# Experimental: (§1) Prism software (GraphPad, San Diego, CA).
# (§2) according to the manufacturer’s protoco l.
# (§3) time of 0.15 second per well.
# (§4) AMG510 was prepared internally from
# (§5) Cells were cultured and seeded
# [6] = tested on: extended cell panel incl. HEK293 cells; test: CellTiter-Glo cell viability assay (extended cell panel); type: cell-based
# Text: Table S2: Cell culture conditions and seeding densities for 5-day CellTiter- Glo® cell viability assay on extended 1 6 cell panel.
# Cell Line Vendor Catalog Description Complete g rowth m e d i um Seeding density […]
# Capan-1 ATCC HTB-79 pancreas, adenocarcinoma IMDM+20%FBS 7 00
# CFPAC-1 ATCC CRL-19 18 pancreas, ductal adenocarcinoma; cystic fibrosis IMDM+10%FBS 6 00 […]
# MiaPaCa-2 ATCC CRL-14 20 pancreas, pancreatic Carcinoma DMEM+10%FBS 6 00 NCI-H358 ATCC CRL-58 07 lung, non-small cell lung cancer,bronchioalveolar RPMI1640+10%FBS […]
# Panc 10.05 ATCC CRL-25 47 pancreas, adenocarcinoma RPMI1640 + 20 Units/ml human […]
# SK-CO-1 ATCC HTB-39 colon, colorectal adenocarcinoma EMEM+10%FBS 3 00 […]
# SW4 80 ATCC CCL-22 8 colon, adenocarcinoma Leibovitz's L-15
# Prism software (GraphPad, San Diego, CA). […]
# according to the manufacturer’s protoco l. […]
# as §3, §4
# Cells were cultured and seeded […]
# the manufacturer’s protocol. […]
# integration time of 0.1 second per well. […]
# indicated peptides the next day.
# A375 cells = test: CellTiter-Glo 2.0 cell viability assay, A375; type: cell-based; conditions: 120 h
# Experimental: as §1, §2, §3, §4, §5
# [7] = tested on: pERK in KRAS^G12C, KRAS^G12V and KRAS^G12D cancer lines; test: Cellular phospho-ERK assay in panel of KRAS mutant cancer lines; type: cell-based
# Experimental: For the latter, this included HEK293 cells (Fig. 4C), a cell line that has no dependency on RAS for cell proliferation.[21]
# Ratio of pERK vs total ERK in
# Penicillin/Streptomycin (Gibco 15140-122).
# A375 cells were seeded at a
# membranes were measured by LDH release assay.
# according to manufacturer’s protocol.
# [8] = tested on: pERK in NCI-H358 (heterozygous KRAS^G12C) cells; test: Cellular phospho-ERK assay in NCI-H358 cells with and without EGF; conditions: 20 nM EGF stimulation
# [9] = tested on: A375 and SK-MEL-28 cells vs AsPC-1 cells; test: Live-cell fluorescence imaging of FAM-labelled peptides; type: cell-based; conditions: A375 and SK-MEL-28 compared to AsPC-1
structure (smiles),measurement,setting,value
CC[C@H](C)[C@@H]1NC(=O)[C@H](Cc2ccc(O)cc2)NC(=O)[C@H](CC(C)C)NC(=O)[C@@H]2CCCN2C(=O)[C@H](NC(=O)[C@@H](CCCNC(=N)N)NC(=O)[C@@H](CCCNC(=N)N)NC(=O)[C@@H](CCCNC(=N)N)NC(=O)[C@@H](CCCNC(=N)N)NC(=O)[C@H](CCCCN=[N+]=[N-])NC(C)=O)CSCSC[C@@H](C(=O)N[C@H](CCCNC(=N)N)C(=O)N[C@H](CCCNC(=N)N)C(=O)N[C@H](CCCNC(=N)N)C(=O)N[C@H](CCCNC(=N)N)C(N)=O)NC(=O)[C@H](C(C)C)NC(=O)[C@@H]2CCCN2C(=O)[C@H](CC(=O)O)NC(=O)[C@H](Cc2ccc(O)cc2)NC(=O)[C@H](CO)NC1=O [MP-4090],"inhibition of KRAS signaling (pERK, pAKT) by Western blot",[1],display cell-based inhibition
same,effect on TNFα-stimulated NFκB signaling,[2],no effect
same,inhibition of MAPK signaling in SK-MEL-28,[3],inactive
same,effect on upstream EGF receptor activation,EGF receptor activation,no effect
same,"activation of mast cell degranulation (histamine release), in words","rat mast cells; ex vivo, rat mast cells",highly potent activators of MCD
same,rMCD histamine release threshold,"rat mast cells; lowest concentration at which histamine release was observed, rat peritoneal mast cells, 30 min",≥0.14 µM
same,inhibition of MAPK signaling in A375,[4],inactive
CC[C@H](C)[C@@H]1NC(=O)[C@H](Cc2ccc(O)cc2)NC(=O)[C@H](C)NC(=O)[C@@H]2CCCN2C(=O)[C@H](NC(=O)[C@H](CCCNC(=N)N)NC(=O)[C@H](CCCNC(=N)N)NC(C)=O)CSCSC[C@@H](C(=O)N[C@@H](CCCNC(=N)N)C(=O)N[C@@H](CCCNC(=N)N)C(N)=O)NC(=O)[C@H](C(C)C)NC(=O)[C@@H]2CCCN2C(=O)[C@H](CC(=O)O)NC(=O)[C@H](Cc2ccc(O)cc2)NC(=O)[C@H](CO)NC1=O [Compound 6] (Ac-RR[dC]PAYISYDPVCRR-NH2; linker 3-13 via CH2),EC50,GDP-loaded KRAS^G12D,> 48.1 µM
"CC[C@@H](C)[C@H]1NC(=O)[C@@H](Cc2ccc(O)cc2)NC(=O)[C@@H](CC(C)C)NC(=O)[C@H]2CCCN2C(=O)[C@H](NC(=O)[C@@H](CCCNC(=N)N)NC(=O)[C@@H](CCCNC(=N)N)NC(=O)[C@@H](CCCNC(=N)N)NC(=O)[C@@H](CCCNC(=N)N)NC(C)=O)CSCSC[C@H](C(=O)N[C@H](CCCNC(=N)N)C(=O)N[C@H](CCCNC(=N)N)C(=O)N[C@H](CCCNC(=N)N)C(=O)N[C@H](CCCNC(=N)N)C(N)=O)NC(=O)[C@@H](C(C)C)NC(=O)[C@H]2CCCN2C(=O)[C@@H](CC(=O)O)NC(=O)[C@@H](Cc2ccc(O)cc2)NC(=O)[C@@H](CO)NC1=O [MP-4956, Ac-rrrr-cyclo(c(methylene)plyisydpvc)-rrrr-NH2]","inhibition of KRAS signaling (pERK, pAKT) by Western blot",[1],showed no activity
same,inhibition of cell proliferation in KRAS mutant lines,[5],minimal inhibitory effects
CC[C@H](C)[C@@H]1NC(=O)[C@H](Cc2ccc(O)cc2)NC(=O)[C@H](CC(C)C)NC(=O)[C@@H]2CCCN2C(=O)[C@H](NC(=O)[C@@H](CCCNC(=N)N)NC(=O)[C@@H](CCCNC(=N)N)NC(=O)[C@@H](CCCNC(=N)N)NC(=O)[C@@H](CCCNC(=N)N)NC(=O)[C@H](CCCCN=[N+]=[N-])NC(C)=O)CSCSC[C@@H](C(=O)N[C@H](CCCNC(=N)N)C(=O)N[C@H](CCCNC(=N)N)C(=O)N[C@H](CCCNC(=N)N)C(=O)N[C@H](CCCNC(=N)N)C(N)=O)NC(=O)[C@H](C(C)C)NC(=O)[C@@H]2CCCN2C(=O)[C@H](CC(=O)O)NC(=O)[C@H](Cc2ccc(O)cc2)NC(=O)[C@](C)(CO)NC1=O [MP-3995],sensitivity of HEK293 cell proliferation,"[6]; HEK293, no dependency on RAS",insensitive
same,number of KRAS mutant cell lines with inhibited proliferation,"[6]; extended panel, 120 h",8 out of 13
same,cell growth inhibition in A375,A375 cells,lack of cell growth inhibition
same,inhibition of cell proliferation in KRAS mutant lines,[5],inhibitory effects on cell proliferation
same,pERK inhibition across KRAS mutant cancer lines,[7],low micromolar range
C=CC(=O)N1CCN(c2nc(OC[C@@H]3CCCN3C)nc3c2CCN(c2cccc4cccc(C)c24)C3)C[C@@H]1CC#N [MRTX-1257],"potency shift in pERK in the presence of EGF, NCI-H358",[8],2 fold
CC[C@H](C)[C@@H]1NC(=O)[C@H](Cc2ccc(O)cc2)NC(=O)[C@H](CC(C)C)NC(=O)[C@@H]2CCCN2C(=O)[C@H](NC(=O)[C@@H](CCCNC(=N)N)NC(=O)[C@@H](CCCNC(=N)N)NC(=O)[C@@H](CCCNC(=N)N)NC(=O)[C@@H](CCCNC(=N)N)NC(=O)c2ccc3c(c2)C(=O)OC32c3ccc(O)cc3Oc3cc(O)ccc32)CSCSC[C@@H](C(=O)N[C@H](CCCNC(=N)N)C(=O)N[C@H](CCCNC(=N)N)C(=O)N[C@H](CCCNC(=N)N)C(=O)N[C@H](CCCNC(=N)N)C(N)=O)NC(=O)[C@H](C(C)C)NC(=O)[C@@H]2CCCN2C(=O)[C@H](CC(=O)O)NC(=O)[C@H](Cc2ccc(O)cc2)NC(=O)[C@H](CO)NC1=O [MP-8996],cell entry of FAM-labeled peptide in BRAF mutant cells,[9],roughly equivalent amounts compared to AsPC-1 cells
